Experimental findings from patent US20060167098A1, “Method for the treatment of diseases linked to an accumulation of triglycerides and cholesterol” (Institut National De La Sante ET De LA Recherche Medicale …, priority 2003, published 2006) are described below.

Experiment [1] is described as follows: Plasma HDL-cholesterol and triglycerides in ob/ob mice during a 4-month treatment. Format: in vivo. How it is done: Plasma lipids (triglycerides, total cholesterol, phospholipids) were measured on an automatic analyser (Hitachi 717®). The commercial kits used to assess triglycerides, total cholesterol and phospholipids on this analyser were all from bioMérieux (references 61238, 61219 and 61491, respectively). Plasma non esterified fatty acids (NEFA) were assessed by using a commercial kit (Wako, reference 994-75409). Hepatic and plasma lipids were performed at the end of six weeks of treatment in animals that have been fasted for 48 hours. Triglycerides and HDL-cholesterol were also assessed after 2 months (in the fed state) or after 4 months of treatment (after an overnight fast).
Plasma HDL-cholesterol and alanine aminotransferase (ALT) were measured on an automatic analyser (Olympus AU400®) with commercial kits (Olympus Diagnostica GmbH, references OSR6187 and OSR6107, respectively).
In this series of experiments, plasma lipids, and especially HDL-cholesterol were assessed in ob/ob mice during a 4-month period of treatment. Mice were fed with standard diet. Ob/ob mice were treated for 4 months with β-aminoisobutyric acid, administered either at the usual dose (100 mg/kg/day) or at a higher dose (500 mg/kg/day). After two months, measurements were done in the fed state, while at the end of the treatment (i.e. after 4 months) plasma parameters were assessed after a overnight fasting period (i.e. 15 hours). One mice in the control group died between the third and fourth month of treatment.
The number of mice at the end of the experiment was 6,7 and 8, respectively in the control group and the groups treated with 100 and 500 mg/kg/day of β-aminoisobutyric acid. It is noteworthy that the animals studied in this experiment are the same than those cholesterol. Indeed, HDL-cholesterol was 3.26±0.33, 3.45±0.31 and 3.64±0.31 mmol/L, respectively in control mice and mice treated with 100 and 500 mg/kg/day of β-aminoisobutyric acid. Plasma triglycerides tended to be decreased in treated mice. Triglycerides were indeed 1.37±0.13, 1.09±0.06 and 1.25±0.17 mmol/L, respectively in control mice and mice treated with 100 and 500 mg/kg/day of β-aminoisobutyric acid.

A short description of experiment [2]: Gain of body fat mass by DEXA in Swiss mice, standard diet, not fasted. Type of experiment: in vivo. The following applies: 100 mg/kg/day; for gain of body fat: standard diet, not fasted. The text has this: Six to 8 weeks old male (Crl:CD-1(ICR)BR) Swiss mice, and six to ten weeks old male RjOrl Swiss mice (i.e. lean mice) weighing 28 and 32 grams were purchased from Dépré (Saint Doulchard, France). Ten to 12 weeks old ob/ob male (C57BL/6-ob) mice (i.e. obese mice), weighing 40 to 44 grams were purchased from Janvier (Le-Genest-St-Isle, France). In one experiment, younger ob/ob mice (5-6 weeks old) weighing 25-26 grams were also studied. In genetically obese ob/ob mice, a mutation on the gene of leptin prevents the normal production of this hormone, thus increasing appetite and decreasing energy consumption (Friedman J. M., Halaas J. L., 1998, Nature 395 : 763-770). […] The animals were acclimatized for one to two weeks before the start of experiments.
D,L-β-Aminoisobutyric acid (BAIBA) was purchased from Sigma-Aldrich. BAIBA has been administered in drinking water at the dose of 100 mg/kg/day or 500 mg/kg/day for 6 weeks, 2 months or 4 months according to the experiments.
The in vivo determination of body fat mass in anesthetized mice has been performed by “DEXA” (Dual Energy X-ray Absorptiometry) (Pietriobelli A., Formica C., Wang Z., Heymsfield S. B., 1996, Am. J. Physiol. 271 (Endocrinol. Metab. 34): E941-E951)). […] It is noteworthy that DEXA also gives for each investigated animal its lean mass that is the total amount of water and proteins (in grams) in the body (excluding the head). Therefore, for a given animal, DEXA allows the determination of the percentage of body fat which is its body fat mass divided by the sum of its body lean and fat masses (fat mass/(lean mass+fat mass)). The “DEXA” apparatus was a Piximus® from Lunar Corporation (Madison, Wis.). Mice were anesthetized thanks to a mixture of xylazine and ketamine.
Procedure 1: the animals were not fasted before DEXA investigations. The first DEXA measurement was performed one day before the beginning of the investigation (T0). Afterwards, DEXA measurements have been respectively performed two weeks (T2) and six weeks (T6) after the beginning of the treatment. With this procedure, it has been possible to determine in each group of animals the evolution of several parameters (e.g. fat mass, body weight) between respectively T0 and T2, and T2 and T6. Comparisons of these evolutions were thus performed for the T0-T2, T2-T6 and T0-T6 periods.
In a second series of investigations, we sought to determine as to whether of 100 mg/kg/day of β-aminoisobutyric acid (BAIBA) decreases body fat in Swiss mice not submitted to fast before DEXA measurements. Mice were 6 to 8 weeks old at the beginning of the experiment. In this experiment, DEXA was performed one day before the beginning of the treatment (T0) and then two and six weeks after the initiation of the experience (T2 and T6, respectively). This allowed us to determine for each animal the variation of body fat mass for the different periods of the treatment (T0-T2, T2-T6 and T0-T6). […] This effect of BAIBA is submitted in FIG. 2.

[3] abbreviates: 100 mg/kg/day, after 4 months, fasted state.
The mark [4] stands for this setting: 100 mg/kg/day, first time point (two months, fed state).
Setting [5] is: 500 mg/kg/day, after 4 months, fasted state.
The mark [6] stands for this setting: 500 mg/kg/day, first time point (two months, fed state).

SMILES strings stand for the structures.

Regarding `CC(CN)C(=O)O` (racemic) [BAIBA, D,L-β-Aminoisobutyric acid], the HDL-cholesterol in experiment [1] (setting [3]) stood at 4.01 ± 0.30 mmol/L; in experiment [1] (setting [4]) it was 3.45 ± 0.31 mmol/L; in experiment [1] (setting [5]) it was 3.98 ± 0.31 mmol/L; in experiment [1] (setting [6]) it was 3.64 ± 0.31 mmol/L. For the same compound, the plasma triglycerides in experiment [1] (setting [3]) came to 1.34 ± 0.08 mmol/L; in experiment [1] (setting [4]) it was 1.09 ± 0.06 mmol/L; in experiment [1] (setting [5]), 1.26 ± 0.07 mmol/L; in experiment [1] (setting [6]), 1.25 ± 0.17 mmol/L. Also, the entries for the “gain of body fat” value in experiment [2] (T0-T2 period), in experiment [2] (T0-T6 period) and in experiment [2] (T2-T6 period) were 0.56±0.12 grams, 0.84±0.18 grams and 0.28±0.12 grams, respectively. For the same compound, the “gain of body weight” value in experiment [2] (T0-T6) was 9.02±0.42 grams. Moreover, the “reduction of the gain of fat mass” value in experiment [2] (T0-T6, standard diet, vs control) was 55%. Besides, the “reduction of the gain of body weight” value in experiment [2] (T0-T6, vs control, p<0.01) was 12%.
